According to US9932354B2, “Imidazo-oxadiazole and imidazo-thiadiazole derivatives” (Ares Trading S.A., priority 2012, dated 2018):

Assays:
[1] = system: Amyloid-β peptide release (Aβ42), HEK cells overexpressing APP (HEK-APP); assay: Amyloid-β peptide release (Aβ42) assay, AlphaLISA on supernatant of HEK-APP cells; format: cell-based; settings: Homo sapiens, HEK293, 24 h incubation with compound, read-out: Ab42 IC50 Ranges
Procedure: (§1) Amyloid-β Peptide Release (Aβ42 & AβTotal) Assay to Determine IC50 Values.
(§2) Compounds are dissolved in and diluted in 100% DMSO and incubated with HEK-APP cells for 24 h at 37° C. in 5% CO2. The supernatant from HEK-APP cells are mixed with antibodies: for Aβ42 detection: AlphaLISA Amyloid-β 1-42 Kit (Perkin Elmer AL203L) Anti-Amyloid β1-42-specific antibody acceptor beads, biotinylated anti-Amyloid-“β1-42” antibody and streptavidin (SA) donor beads diluted in AlphaLISA buffer (to the instructions of the supplier). For Aβ total detection: Custom Anti-Amyloid-βtotal acceptor beads (6E10 acceptor beads), biotinylated anti-Amyloid “β1-42” antibody (Perkin Elmer AL203L) and streptavidin (SA) donor beads diluted in AlphaLISA buffer (to the instructions of the supplier). After addition of supernatant to the antibody mix, the assay is incubated for 4.5 h. Amyloid-β peptide release (Aβ42 & AβTotal) is measured with a Pherastar FS (BMG) multimode reader using the alphascreen module.

[2] = system: Amyloid-β peptide release (AβTotal), HEK cells overexpressing APP (HEK-APP); assay: Amyloid-β peptide release (AβTotal) assay, AlphaLISA on supernatant of HEK-APP cells; format: cell-based; settings: ratio Abtot vs Ab42, HEK-APP cells, 24 h
Procedure: as §1, §2

Cc1ncc2oc(-c3ccc(Nc4nc5n(n4)CCCC5c4ccc(F)cc4)cc3)nn12 (centres unmarked) [Example 24, 8-(4-fluorophenyl)-N-(4-(5-methylimidazo[5,1-b][1,3,4]oxadiazol-2-yl)phenyl)-5,6,7,8-tetrahydro-[1,2,4]triazolo[1,5-a]pyridin-2-amine]
IC50 [1]: 500 to 1000 nM | Abtot/Ab42 selectivity ranges [2]: c (c: 50 fold > selectivity ≥ 10 fold)

Cc1ncc2oc(-c3ccc(Nc4nc5n(n4)CCCC5c4ccc(Cl)cc4Cl)cc3)nn12 (centres unmarked) [Example 25, [8-(2,4-Dichloro-phenyl)-5,6,7,8-tetrahydro-[1,2,4]triazolo[1,5-a]pyridin-2-yl]-[4-(5-methyl-imidazo[5,1-b][1,2,4]oxadiazol-2-yl)-phenyl]-amine]
IC50 [1]: 500 to 1000 nM | Abtot/Ab42 selectivity ranges [2]: c (c: 50 fold > selectivity ≥ 10 fold)

Cc1ncc2oc(-c3ccc(Nc4nc5c(s4)CCCC5c4ccccc4)cc3)nn12 (centres unmarked) [Example 26, [4-(5-Methyl-imidazo[5,1-b][1,2,4]oxadiazol-2-yl)-phenyl]-(4-phenyl-4,5,6,7-tetrahydro-benzothiazol-2-yl)-amine]
IC50 [1]: 1000 to 2200 nM | Abtot/Ab42 selectivity ranges [2]: c (c: 50 fold > selectivity ≥ 10 fold)

Cc1ncc2oc(-c3ccc(Nc4nc5c(s4)CCCC5c4ccc(F)cc4)cc3)nn12 (centres unmarked) [Example 27, [4-(4-Fluoro-phenyl)-4,5,6,7-tetrahydro-benzothiazol-2-yl]-[4-(5-methyl-imidazo[5,1-b][1,2,4]oxadiazol-2-yl)-phenyl]-amine]
IC50 [1]: 1000 to 2200 nM | Abtot/Ab42 selectivity ranges [2]: d (d: 10 fold > selectivity)

Cc1ncc2oc(-c3ccc(NCc4ccc(Cl)c(Cl)c4)cn3)nn12 [Example 28]
IC50 [1]: 100 to 500 nM | Abtot/Ab42 selectivity ranges [2]: d (d: 10 fold > selectivity)

Cc1ncc2oc(-c3ccc(Nc4ccn(Cc5ccc(Cl)cc5)n4)cc3)nn12 [Example 29, [1-(4-Chloro-benzyl)-1H-pyrazol-3-yl]-[4-(5-methyl-imidazo[5,1-b][1,2,4]oxadiazol-2-yl)-phenyl]-amine]
IC50 [1]: 1000 to 2200 nM | Abtot/Ab42 selectivity ranges [2]: d (d: 10 fold > selectivity)

Cc1ncc2oc(-c3ccc(Nc4ccn(Cc5ccc(Cl)c(Cl)c5)n4)cc3)nn12 [Example 30, [1-(3,4-Dichloro-benzyl)-1H-pyrazol-3-yl]-[4-(5-methyl-imidazo[5,1-b][1,2,4]oxadiazol-2-yl)-phenyl]-amine]
IC50 [1]: 1000 to 2200 nM | Abtot/Ab42 selectivity ranges [2]: c (c: 50 fold > selectivity ≥ 10 fold)

COc1cc(NC(=O)Cc2cccc(C(F)(F)F)c2)ccc1-c1nn2c(C)ncc2o1 [Example 31, N-(3-methoxy-4-(5-methylimidazo[5,1-b][1,3,4]oxadiazol-2-yl)phenyl)-2-(3-(trifluoromethyl)phenyl)acetamide]
IC50 [1]: 100 to 500 nM | Abtot/Ab42 selectivity ranges [2]: a (a: selectivity ≥ 100 fold)

COc1cc(NC(=O)Cc2c(Cl)cc(C(F)(F)F)cc2Cl)ccc1-c1nn2c(C)ncc2o1 [Example 32, 2-(2,6-dichloro-4-(trifluoromethyl)phenyl)-N-(3-methoxy-4-(5-methylimidazo[5,1-b][1,3,4]oxadiazol-2-yl)phenyl) acetamide]
IC50 [1]: 100 to 500 nM | Abtot/Ab42 selectivity ranges [2]: a (a: selectivity ≥ 100 fold)

COc1cc(NC(=O)Cc2cccc(Cl)c2)ccc1-c1nn2c(C)ncc2o1 [Example 33, 2-(3-chlorophenyl)-N-(3-methoxy-4-(5-methylimidazo[5,1-b] [1,3,4]oxadiazol-2-yl)phenyl)acetamide]
IC50 [1]: 500 to 1000 nM | Abtot/Ab42 selectivity ranges [2]: b (b: 100 fold > selectivity ≥ 50 fold)

COc1cc(NC(=O)Cc2ccc(OC(F)(F)F)cc2)ccc1-c1nn2c(C)ncc2o1 [Example 34, N-(3-methoxy-4-(5-methylimidazo[5,1-b][1,3,4]oxadiazol-2-yl)phenyl)-2-(4-(trifluoromethoxy)phenyl)acetamide]
IC50 [1]: 500 to 1000 nM | Abtot/Ab42 selectivity ranges [2]: b (b: 100 fold > selectivity ≥ 50 fold)

CCOc1ccc(CC(=O)Nc2ccc(-c3nn4c(C)ncc4o3)c(OC)c2)cc1 [Example 35, 2-(4-ethoxyphenyl)-N-(3-methoxy-4-(5-methylimidazo [5,1-b][1,3,4]oxadiazol-2-yl)phenyl)acetamide]
IC50 [1]: 500 to 1000 nM | Abtot/Ab42 selectivity ranges [2]: b (b: 100 fold > selectivity ≥ 50 fold)

COc1cc(NC(=O)Cc2ccccc2)ccc1-c1nn2c(C)ncc2o1 [Example 36, N-(3-methoxy-4-(5-methylimidazo[5,1-b][1,3,4]oxadiazol-2-yl)phenyl)-2-phenylacetamide]
IC50 [1]: 1000 to 2200 nM | Abtot/Ab42 selectivity ranges [2]: c (c: 50 fold > selectivity ≥ 10 fold)

COc1cc(NC(=O)Cc2ccccc2C(F)(F)F)ccc1-c1nn2c(C)ncc2o1 [Example 37, N-(3-methoxy-4-(5-methylimidazo[5,1-b][1,3,4]oxadiazol-2-yl)phenyl)-2-(2-(trifluoromethyl)phenyl)acetamide]
IC50 [1]: 1000 to 2200 nM | Abtot/Ab42 selectivity ranges [2]: c (c: 50 fold > selectivity ≥ 10 fold)

Cc1ccc(C)c(CC(=O)Nc2ccc(-c3nn4c(C)ncc4o3)cc2C)c1 [Example 38]
IC50 [1]: 100 to 500 nM | Abtot/Ab42 selectivity ranges [2]: a (a: selectivity ≥ 100 fold)

Cc1cc(-c2nn3c(C)ncc3o2)ccc1NC(=O)Cc1ccc(C(F)(F)F)cc1 [Example 39, N-(2-methyl-4-(5-methylimidazo[5,1-b][1,3,4]oxadiazol-2-yl)phenyl)-2-(4-(trifluoromethyl)phenyl)acetamide]
IC50 [1]: 500 to 1000 nM | Abtot/Ab42 selectivity ranges [2]: b (b: 100 fold > selectivity ≥ 50 fold)

Cc1cc(-c2nn3c(C)ncc3o2)ccc1NC(=O)Cc1ccccc1C(F)(F)F [Example 40, N-(2-methyl-4-(5-methylimidazo[5,1-b][1,3,4]oxadiazol-2-yl)phenyl)-2-(2-(trifluoromethyl)phenyl)acetamide]
IC50 [1]: 500 to 1000 nM | Abtot/Ab42 selectivity ranges [2]: b (b: 100 fold > selectivity ≥ 50 fold)

Cc1cc(-c2nn3c(C)ncc3o2)ccc1NC(=O)Cc1cccc(C(F)(F)F)c1 [Example 41, N-(2-methyl-4-(5-methylimidazo[5,1-b][1,3,4]oxadiazol-2-yl)phenyl)-2-(3-(trifluoromethyl)phenyl)acetamide]
IC50 [1]: 500 to 1000 nM | Abtot/Ab42 selectivity ranges [2]: b (b: 100 fold > selectivity ≥ 50 fold)

Cc1cc(-c2nn3c(C)ncc3o2)ccc1NC(=O)Cc1c(Cl)cc(C(F)(F)F)cc1Cl [Example 42, 2-(2,6-dichloro-4-(trifluoromethyl)phenyl)-N-(2-methyl-4-(5-methylimidazo[5,1-b][1,3,4]oxadiazol-2-yl)phenyl)acetamide]
IC50 [1]: 500 to 1000 nM | Abtot/Ab42 selectivity ranges [2]: b (b: 100 fold > selectivity ≥ 50 fold)

Cc1cc(-c2nn3c(C)ncc3o2)ccc1NC(=O)Cc1cccc(Cl)c1 [Example 43, 2-(3-chlorophenyl)-N-(2-methyl-4-(5-methylimidazo[5,1-b][1,3,4]oxadiazol-2-yl)phenyl)acetamide]
IC50 [1]: 1000 to 2200 nM | Abtot/Ab42 selectivity ranges [2]: c (c: 50 fold > selectivity ≥ 10 fold)

Cc1cc(-c2nn3c(C)ncc3o2)ccc1NC(=O)Cc1ccc(Cl)cc1 [Example 44, 2-(4-chlorophenyl)-N-(2-methyl-4-(5-methylimidazo[5,1-b][1,3,4]oxadiazol-2-yl)phenyl)acetamide]
IC50 [1]: 500 to 1000 nM | Abtot/Ab42 selectivity ranges [2]: b (b: 100 fold > selectivity ≥ 50 fold)

Cc1cc(-c2nn3c(C)ncc3o2)ccc1NC(=O)Cc1ccc(OC(F)(F)F)cc1 [Example 45, N-(2-methyl-4-(5-methylimidazo[5,1-b][1,3,4]oxadiazol-2-yl)phenyl)-2-(4-(trifluoromethoxy)phenyl)acetamide]
IC50 [1]: 500 to 1000 nM | Abtot/Ab42 selectivity ranges [2]: b (b: 100 fold > selectivity ≥ 50 fold)

Cc1cc(-c2nn3c(C)ncc3o2)ccc1NC(=O)C(C)c1cccc(C(F)(F)F)c1 (centres unmarked) [Example 46, N-(2-methyl-4-(5-methylimidazo[5,1-b][1,3,4]oxadiazol-2-yl)phenyl)-2-(3-(trifluoromethyl)phenyl)propanamide]
IC50 [1]: 500 to 1000 nM | Abtot/Ab42 selectivity ranges [2]: b (b: 100 fold > selectivity ≥ 50 fold)

Cc1ncc2oc(-c3ccc(NC(=O)Cc4ccc(Cl)cc4)cc3)nn12 [Example 47, 2-(4-Chloro-phenyl)-N-[4-(5-methyl-imidazo[5,1-b] [1,2,4]oxadiazol-2-yl)-phenyl]-acetamide]
IC50 [1]: 500 to 1000 nM | Abtot/Ab42 selectivity ranges [2]: c (c: 50 fold > selectivity ≥ 10 fold)

Cc1ncc2oc(-c3ccc(NC(=O)Cc4ccc(C(F)(F)F)cc4)cc3)nn12 [Example 48, N-[4-(5-Methyl-imidazo[5,1-b][1,2,4]oxadiazol-2-yl)-phenyl]-2-(4-trifluoromethyl-phenyl)-acetamide]
IC50 [1]: 1000 to 2200 nM | Abtot/Ab42 selectivity ranges [2]: c (c: 50 fold > selectivity ≥ 10 fold)

Cc1ncc2oc(-c3ccc(NC(=O)Cc4ccc(C#N)cc4)cc3)nn12 [Example 49, 2-(4-Cyano-phenyl)-N-[4-(5-methyl-imidazo[5,1-b] [1,2,4]oxadiazol-2-yl)-phenyl]-acetamide]
IC50 [1]: 1000 to 2200 nM | Abtot/Ab42 selectivity ranges [2]: c (c: 50 fold > selectivity ≥ 10 fold)

Cc1ccc(C)c(CC(=O)Nc2ccc(-c3nn4c(C)ncc4o3)cc2)c1 [Example 50]
IC50 [1]: 500 to 1000 nM | Abtot/Ab42 selectivity ranges [2]: c (c: 50 fold > selectivity ≥ 10 fold)

Cc1cc(C)cc(CC(=O)Nc2ccc(-c3nn4c(C)ncc4o3)cc2)c1 [Example 51, 2-(3,5-Dimethyl-phenyl)-N-[4-(5-methyl-imidazo[5,1-b][1,2,4]oxadiazol-2-yl)-phenyl]-acetamide]
IC50 [1]: 500 to 1000 nM | Abtot/Ab42 selectivity ranges [2]: c (c: 50 fold > selectivity ≥ 10 fold)
